The source of these data is US6590140B1, “Metal-regulated transporters and uses therefor” (Trustees of Dartmouth College, priority 1996, dated 2003).

Type in all cases: cell-based, Saccharomyces cerevisiae
Assay [1] has as its system wild type (DY1457) cells. Description: Zinc-limited growth, wild type yeast. Particulars: LZM, 16 hours. The protocol: Strains used were DY1457 (MATα ade6 can1 his3 leu2 trp1 ura3) and ZHY1 (MaTα ade6 can1 his3 leu2 trp1 ura3 zrt1:: LEU2). Yeast were grown in standard culture media (SD, YPD) (Eide, D., Davis-Kaplan S., Jordan, I., Sipe, D., and Kaplan, J. (199: 2) J. Biol. Chem. 267, 20774-20781) supplemented with necessary auxotrophic requirements and either 2% glucose or 2% galactose. A zinc-limiting medium (LZM) was prepared in the same manner as LIM (Eide and Guarenete (1992) J. Gen. Microbiol. 138:347-354) except that […]. Cell number in liquid cultures was determined by measuring the optical density of cell suspensions at 600 nm (A600) and converting to cell number with a standard curve.
Strains used were DY1457 (MATα ade6 can1 his3 leu2 trp1 ura3), ZHY1 (AMTα ade6 can1 his3 leu2 trp1 ura3 zrt1::LEU2), ZHY2 (MATα ade6 can1 his3 leu2 trp1 ura3 zrt2::HIS3), and ZHY3 (MATα ade6 can1 his3 leu2 trp1 ura3 zrt1::LEU2 zrt2::HIS3). […] The concentrations of free (i.e. unchelated) zinc were calculated using MAXCHELATOR software (Chris Patton, Stanford University). Cell number in liquid cultures was determined by measuring the absorbance of cell suspensions at 600 nm (OD600) and converting to cell number with a standard curve. […]

The subject of assay [2] is zrt1 strain. Description: Cell-associated zinc, zrt1 strain. Here is the method:
(§1) Zinc uptake assays were performed as described previously for iron uptake (Eide et al. (1992) J. Biol. Chem. 267:20774-20781) except that ^65ZnCl2 (Amersham) and LZM-EDTA were substituted for ^59FeCI3 and LIM-EDTA, respectively. Cells were incubated for 5 minutes in LZM-EDTA plus the indicated concentration of ^65Zn, collected on glass fiber filters (Schleicher and Schuell), washed with 10 ml ice-cold SSW (1 mM EDTA, 20 mM trisodium citrate, 1 mM KH2PO4, 1 mM CaCl2, 5 mM MgSO4, 1 mM NaCl pH 4.2), and cell-associated radioactivity was measured by liquid scintillation counting. […] Michaelis-Menten kinetic values were determined using […] software (Intellikinetics, Princeton, N.J.). […] The statistical significance of the differences of values relative to controls was determined with one-way analysis of variance (ANOVA) followed by a Dunnett multiple comparison test. β-galactosidase activity was assayed in cells harvested at an OD600 of 0.5-2.0 as described by Guarente (Guarente, L. (1983) Methods Enzymol. 101:181-191) and activity is expressed as the change in absorbance at 420 nm×1000 divided by (min×ml of culture used×OD600 of the culture). Cell-associated zinc was measured in parallel cultures supplemented with tracer amounts of ^65Zn (10 μM) and nonradioactive zinc to the indicated final concentration. […]

In assay [3] the test system is zrt1zrt2 strain. Description: Cell-associated zinc, zrt1zrt2 strain. Here is the method:
as §1

For `[Zn+2]` [zinc], the “calculated free zinc [Zn]F sufficient for maximum growth yield” value in assay [1] is given as roughly 6 pM. The “total zinc sufficient for maximum number of cell divisions” value in assay [1] was 10 µM. In addition, the cell-associated zinc in assay [2] (10 μM total zinc) is reported as 133±12 pmol/10^6 cells; in assay [2] (1000 μM total zinc) it was 168±14 pmol/10^6 cells; in assay [3] (10 μM total zinc) it was 5±0.6 pmol/10^6 cells; in assay [3] (1000 μM total zinc), 86±21 pmol/10^6 cells.
